Measurements reported in patent publication US20190252037A1 (priority 2016, published 2019).

Test system: FluB polymerase K631A+R634A
Assay type: binding, human influenza B/Memphis/13/03

## Pol II CTD peptide, four heptad repeats Tyr-Ser-Pro-Thr-SerP-Pro-Ser (28 amino acids), FAM-labelled at the N-terminal end for binding assays (Covalab) [28-mer SeP5 peptide]
  decrease in the binding affinity compared to wild type: 2.5 fold
